Data published in US10125105B2, “Triazabutadienes as cleavable cross-linkers” (ARIZONA BOARD OF REGENTS ON BEHALF OF THE UNIVERSITY OF …, priority 2014, dated 2018).

How the values were obtained:
[1] = Stability in D2O / water in the dark by NMR; format: physicochemical
Experimental: (§1) For decomposition experiments, buffers were made to the appropriate pH in a 9:1 mix of H2O:D2O. These solutions were added to the compound being assayed such that the buffer capacity was at least 10 fold the concentration of the compound. Some experiments used 5 mg compound in 0.5 mL of buffer. These were immediately inserted into an NMR instrument and scans were taken at even time intervals to calculate the half-life of the compound based on integration.
To render the triazabutadiene water-soluble, methyl imidazole was alkylated with propane sultone to provide the Zwitterionic NHC precursor Compound 5a (see FIG. 6E). […] Compound 6a was highly colored, so its pH dependence was studied using UV/Vis. The reactions were not only pH-, but also scan-frequency dependent. […] Even in the dark it was unstable, but not in the diazonium-forming way. Both Compound 6b and a more hindered mesityl (Mes) substituted Compound 6c (see FIG. 6E) were synthesized to stabilize what was initially considered to be a rearrangement pathway that could be blocked by steric repulsion. […] It is not yet clear that the hypothesis of a simple rearrangement was correct. […]
As mentioned above, Compound 6c was reasonably stable in pure D20. […] The decomposition to diazonium salts and Compound 7 was measured as a function of pH in phosphate/citrate buffers from pH 4-7 and in a phosphate buffer from pH 6-8. […]

[2] = pH-dependent decomposition to diazonium salts in buffers by NMR; format: physicochemical; conditions: phosphate/citrate buffers pH 4-7, phosphate buffer pH 6-8
Experimental: as §1
As mentioned above, Compound 6c was reasonably stable in pure D20. Upon adjusting the pH to 5 with HCl, a rapid initial consumption of Compound 6c to Compound 7 (see FIG. 6E) and a benzenediazonium salt was noted. After this initial burst of reactivity, a slowing and apparent arresting of the reaction was noted. At this pH the hydronium was the limiting reagent. All future reactions were run in buffers with a buffer capacity sufficient to maintain a large excess of hydronium ions. The experiments were performed in 90:10 H2O:D2O buffered solutions to minimize considerations of pH vs. pD. The decomposition to diazonium salts and Compound 7 was measured as a function of pH in phosphate/citrate buffers from pH 4-7 and in a phosphate buffer from pH 6-8. All runs provided linear correlations of concentration and time, indicating a pseudo-zero order reaction (first order with respect to hydronium ion with a large excess of hydronium ions). […]

compound consumed after 24 hours ([1]; D2O, in the dark, room temperature, NMR): less than 10%
compound consumed after 6 hours ([1]; non-buffered 90:10 H2O:D2O solution): > 7%
centre of sigmoidal correlation between decomposition rate and buffer pH [2]: 6 pH
Compound: Cc1cc(C)c(-n2ccn(CCCS(=O)(=O)[O-])c2=NN=Nc2ccccc2)c(C)c1.[K+] [Compound 6c, Potassium 3-(3-mesityl-2-(phenyltriaz-2-en-1-ylidene)-2,3-dihydro-1H-imidazol-1-yl) propane-1-sulfonate]
